The target of one experiment is PI 3-kinase delta (Homo sapiens (Human), UniProt O00329). The experiment is described as follows: Cellular p-Akt (S473) SureFire assay, Rat-1_PI3Kdelta cells (Assay J). In kind it is cell-based. Particulars: p-AKT (Ser473) in Rat-1 cells expressing myr-HA-hp110 delta, 1 h compound; read-out: Assay J PI3Kδ IC50. The source says: (§1) Cellular Assays for PI 3-Kinase Alpha (H), Beta (I) and Delta (J)
(§2) AlphaScreen (Amplified Luminescent Proximity Homogeneous Assay, ALPHA, Perkin Elmer) is a non-radioactive bead-based proximity assay technology to study biomolecular interactions in a homogenous microtiter plate format. The brand name SureFire denotes AlphaScreen assays that are adapted to quantify the phosphorylation of endogenous cellular proteins in cell lysates, by using matched antibody pairs, which consist of an anti-phospho-kinase and an anti-kinase antibody. The assay allows characterization of kinase signaling in cells as well as measurement of kinase inhibitor effects.
(§3) Rat-1 cell lines stably overexpressing activated PI 3-kinase class I isoforms Rat-1 pBABEpuro Myr-HA-hp110 delta clone 5 (Rat-1_PI3Kdelta) and Rat-1 pBABEpuro Myr-HA-hp110 alpha clone 6 (Rat-1_PI3Kalpha) and Rat-1 pBABEpuro Myr-HA-hp110 beta (Rat-1_PI3beta) were cultivated in complete growth medium (DMEM high glucose, 10% (v/v) fetal bovine serum, 1% (v/v) MEM NEAA, 10 mM HEPES, 2 mM L-glutamine, puromycin (10 μg/mL for Rat-1_PI3Kdelta and Rat-1_PI3Kalpha, 4 ug/mL for Rat-1_PI3beta), 1% (v/v) Pen/Strep) to 90% confluency at 37° C./5% CO2/90% humidity in a humidified CO2 incubator and were split twice a week. The following materials were used for p-AKT(5473) detection in Rat-1 cell lysates: Dulbecco's modified Eagle's medium (DMEM) high glucose (Gibco Invitrogen, Basel, Switzerland, Cat. No. 41965), heat inactivated fetal bovine serum, qualified (HI FBS; Gibco Invitrogen, Basel, Switzerland, Lot. No. 16140), MEM non essential amino acids (NEAA; Gibco Invitrogen, Basel, Switzerland, Cat. No. 11140), HEPES (Gibco Invitrogen, Basel, Switzerland, Cat. No. 15630), penicillin/streptomycin (Pen/Strep, 100×; Gibco Invitrogen, Basel, Switzerland, Cat. No. 15140-122), L-glutamine (Gibco Invitrogen, Basel, Switzerland, Cat. No. 25030), puromycin (Sigma Aldrich, Buchs, Switzerland, Cat. No. P9620), DMSO (MERCK, Dietikon, Switzerland, Cat. No. 8.02912.2500), H2O, MilliQ-H2O unless otherwise stated (MILLIPORE QGARDOOR1, Millipore, Zug, Switzerland), bovine serum albumine (BSA; Sigma Aldrich, Buchs, Switzerland Cat. No. A8412), SureFire p-Akt 1/2 (Ser473) Assay Kit (Perkin Elmer, Schwerzenbach, Switzerland, Cat. No. TGRAS50K).
(§4) The p-Akt (S473) SureFire assay measures the phosphorylation of endogenous cellular Akt 1/2 at Ser473 in cell lysates. Using Rat-1 cells stably expressing myr-HA-tagged versions of the human PI3Kdelta, PI3Kalpha, or PI3Kbeta p110 catalytic subunit isoforms, the assay was developed as a two-plate protocol in a 384-well format.
(§5) For compound testing, the cells were seeded at a density of 4000 (Rat-1_PI3Kdelta), 7500 (Rat-1_PI3Kalpha), or 6200 (Rat-1_PI3Kbeta) cells in 20 μl complete growth medium into cell culture treated 384-well plates and were grown at 37° C./5% CO2/90% humidity for 24 h. Shortly before compound transfer, the complete medium was removed, 30 μl assay buffer (DMEM high glucose, 1×MEM NEAA, 10 mM HEPES, 2 mM L-glutamine, 0.1% (w/v) BSA) was added and 10 μl of the compound predilutions were transferred to the cells. After treatment with compound for 1 h, the cells were lysed by the addition of 20 μl lysis buffer supplemented with 0.24% (w/v) BSA. Detection of p-AKT (Ser473) was performed with the SureFire p-Akt 1/2 (Ser473) Assay Kit according to the manufacturer's instructions using 5 ul of cell lysate in a total detection volume of 12 μl.
(§6) IC50 values of the percentage inhibition of each compound at 8 concentrations (usually 10, 3.0, 1.0, 0.3, 0.1, 0.030, 0.010 and 0.003 μM) n=2 were derived by fitting a sigmoidal dose-response curve to a plot of assay readout over inhibitor concentration as described. All fits were performed with the program XLfit4 (ID Business Solutions, Guildford, UK).

In the next experiment the target is PI 3-kinase alpha (Homo sapiens (Human), UniProt P42336). The experiment is described as follows: Cellular p-Akt (S473) SureFire assay, Rat-1_PI3Kalpha cells (Assay H). The experiment is classed as cell-based. Particulars: p-AKT (Ser473) in Rat-1 cells expressing myr-HA-hp110 alpha, 1 h compound; read-out: Assay H PI3Kα IC50.
From the text: as §1, §2, §3, §4, §5, §6

The structures appear in SMILES notation.

As usually defined, the IC50 is the concentration that gives 50% inhibition.

Chain of PI 3-kinase delta (O00329 whole entry): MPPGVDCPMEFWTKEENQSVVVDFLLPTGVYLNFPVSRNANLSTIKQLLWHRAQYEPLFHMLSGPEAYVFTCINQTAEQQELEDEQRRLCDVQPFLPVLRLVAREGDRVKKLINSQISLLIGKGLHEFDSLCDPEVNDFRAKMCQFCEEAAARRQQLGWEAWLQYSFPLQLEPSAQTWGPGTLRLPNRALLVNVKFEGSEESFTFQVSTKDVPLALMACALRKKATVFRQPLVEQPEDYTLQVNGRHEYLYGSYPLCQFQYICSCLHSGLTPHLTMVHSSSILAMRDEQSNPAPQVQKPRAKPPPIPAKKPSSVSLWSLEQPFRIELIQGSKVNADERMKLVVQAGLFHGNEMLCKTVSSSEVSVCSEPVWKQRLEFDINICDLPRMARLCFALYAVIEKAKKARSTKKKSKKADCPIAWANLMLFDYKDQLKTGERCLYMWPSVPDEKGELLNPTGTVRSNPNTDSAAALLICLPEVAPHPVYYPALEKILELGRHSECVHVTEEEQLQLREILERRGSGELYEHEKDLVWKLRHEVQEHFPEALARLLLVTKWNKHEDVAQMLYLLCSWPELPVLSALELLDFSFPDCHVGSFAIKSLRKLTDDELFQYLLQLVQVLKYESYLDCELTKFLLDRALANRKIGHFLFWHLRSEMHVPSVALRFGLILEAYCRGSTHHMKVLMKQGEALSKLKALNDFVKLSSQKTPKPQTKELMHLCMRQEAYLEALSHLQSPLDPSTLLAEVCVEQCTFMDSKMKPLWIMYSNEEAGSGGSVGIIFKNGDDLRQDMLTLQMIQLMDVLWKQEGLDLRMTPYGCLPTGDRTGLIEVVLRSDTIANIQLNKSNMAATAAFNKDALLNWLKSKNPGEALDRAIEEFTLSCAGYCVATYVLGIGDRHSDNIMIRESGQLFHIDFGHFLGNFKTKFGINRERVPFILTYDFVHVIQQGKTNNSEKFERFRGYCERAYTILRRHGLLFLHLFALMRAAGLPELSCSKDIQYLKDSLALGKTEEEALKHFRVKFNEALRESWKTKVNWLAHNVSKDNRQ
Chain of PI 3-kinase delta (Q63787 whole entry partner): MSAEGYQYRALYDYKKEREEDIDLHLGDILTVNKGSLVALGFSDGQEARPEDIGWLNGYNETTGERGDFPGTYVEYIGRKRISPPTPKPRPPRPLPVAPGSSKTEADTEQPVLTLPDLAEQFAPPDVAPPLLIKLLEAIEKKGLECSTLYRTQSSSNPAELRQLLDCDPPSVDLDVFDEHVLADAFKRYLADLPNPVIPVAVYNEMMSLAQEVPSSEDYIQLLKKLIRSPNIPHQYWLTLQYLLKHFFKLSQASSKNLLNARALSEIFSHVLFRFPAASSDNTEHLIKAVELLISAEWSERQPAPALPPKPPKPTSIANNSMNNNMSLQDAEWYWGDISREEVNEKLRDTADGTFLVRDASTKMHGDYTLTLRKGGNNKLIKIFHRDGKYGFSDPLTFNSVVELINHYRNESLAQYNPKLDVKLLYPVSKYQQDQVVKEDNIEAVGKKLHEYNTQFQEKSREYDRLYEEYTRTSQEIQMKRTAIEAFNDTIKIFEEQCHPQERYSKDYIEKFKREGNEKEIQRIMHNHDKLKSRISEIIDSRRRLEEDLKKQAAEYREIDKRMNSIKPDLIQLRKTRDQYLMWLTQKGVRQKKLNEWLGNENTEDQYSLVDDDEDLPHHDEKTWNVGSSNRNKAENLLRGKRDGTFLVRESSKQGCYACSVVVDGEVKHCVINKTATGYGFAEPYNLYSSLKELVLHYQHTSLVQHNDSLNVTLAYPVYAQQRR
Chain of PI 3-kinase alpha (P42336 whole entry): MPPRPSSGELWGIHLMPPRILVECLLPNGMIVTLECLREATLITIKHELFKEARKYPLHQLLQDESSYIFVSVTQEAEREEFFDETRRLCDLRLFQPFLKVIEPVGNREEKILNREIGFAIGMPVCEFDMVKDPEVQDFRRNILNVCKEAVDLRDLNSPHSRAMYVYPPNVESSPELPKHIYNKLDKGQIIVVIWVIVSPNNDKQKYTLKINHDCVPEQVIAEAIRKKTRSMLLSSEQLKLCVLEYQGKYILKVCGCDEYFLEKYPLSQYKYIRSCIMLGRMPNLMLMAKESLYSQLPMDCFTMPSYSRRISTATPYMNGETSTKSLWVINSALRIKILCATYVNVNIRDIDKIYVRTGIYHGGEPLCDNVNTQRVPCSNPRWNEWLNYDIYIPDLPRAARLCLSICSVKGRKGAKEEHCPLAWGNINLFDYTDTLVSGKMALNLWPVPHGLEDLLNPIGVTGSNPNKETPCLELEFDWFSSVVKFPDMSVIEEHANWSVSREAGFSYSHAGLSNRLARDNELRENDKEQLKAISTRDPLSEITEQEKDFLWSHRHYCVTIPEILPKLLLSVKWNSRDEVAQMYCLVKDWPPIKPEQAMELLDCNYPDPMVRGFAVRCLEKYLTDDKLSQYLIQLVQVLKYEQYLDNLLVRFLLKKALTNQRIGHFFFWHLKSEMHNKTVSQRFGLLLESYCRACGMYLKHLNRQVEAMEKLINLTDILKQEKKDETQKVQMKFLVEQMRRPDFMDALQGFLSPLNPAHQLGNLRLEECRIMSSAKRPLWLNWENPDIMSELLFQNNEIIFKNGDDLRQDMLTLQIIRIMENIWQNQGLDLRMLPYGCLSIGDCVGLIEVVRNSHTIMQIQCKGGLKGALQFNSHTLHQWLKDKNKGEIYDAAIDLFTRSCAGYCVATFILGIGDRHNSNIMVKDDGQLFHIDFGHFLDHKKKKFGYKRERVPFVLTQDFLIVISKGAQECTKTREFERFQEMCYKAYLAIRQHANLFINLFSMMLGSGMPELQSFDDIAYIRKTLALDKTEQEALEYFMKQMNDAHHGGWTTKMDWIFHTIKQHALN
Chain of PI 3-kinase alpha (Q63787 whole entry partner): as the sequence (Q63787 whole entry partner) above

In the case of `Cc1ccc(S(=O)(=O)NCC(C)(C)O)cc1-c1cncc(-c2cn(C)nc2C)n1` [Example 2, 3-[6-(1,3-Dimethyl-1H-pyrazol-4-yl)-pyrazin-2-yl]-N-(2-hydroxy-2-methyl-propyl)-4-methyl-benzenesulfonamide], the IC50 at PI 3-kinase delta is 367 nM; on PI 3-kinase alpha, 450 nM.
The corresponding values for `Cc1ccc(S(=O)(=O)NCCC(C)(C)O)cc1-c1cncc(-c2cn(C)nc2C)n1` [Example 3, 3-[6-(1,3-Dimethyl-1H-pyrazol-4-yl)-pyrazin-2-yl]-N-(3-hydroxy-3-methyl-butyl)-4-methyl-benzenesulfonamide] are 1370 nM and 1020 nM.
The corresponding values for `Cc1ccc(S(=O)(=O)NCC2(C)COC2)cc1-c1cncc(-c2cn(C)nc2C)n1` [Example 4, Trans 3-[6-(1,3-Dimethyl-1H-pyrazol-4-yl)-pyrazin-2-yl]-4-methyl-N-(3-methyl-oxetan-3-ylmethyl)-benzenesulfonamide] are 285 nM and 293 nM.
Regarding `Cc1ncc(-c2cncc(-c3cc(S(=O)(=O)N[C@H]4CC[C@H](O)CC4)ccc3C)n2)s1` [Example 5, Trans N-(4-Hydroxycyclohexyl)-4-methyl-3-(6-(2-methylthiazol-5-yl)pyrazin-2-yl)benzenesulfonamide], the IC50 on PI 3-kinase delta stood at 540 nM; at PI 3-kinase alpha, 838 nM.
For `Cc1ccc(S(=O)(=O)NCCC(C)(C)O)cc1-c1cncc(-c2cnn(CCN3CCOCC3)c2)n1` [Example 9, N-(3-Hydroxy-3-methyl-butyl)-4-methyl-3-{6-[1-(2-morpholin-4-yl-ethyl)-1H-pyrazol-4-yl]-pyrazin-2-yl}-benzenesulfonamide] the same measures were 1680 nM and 2480 nM.
Turning to `Cc1ccc(S(=O)(=O)NCCC(C)(C)O)cc1-c1cncc(-c2cn(CCN3CCOCC3)nc2C)n1` [Example 10, N-(3-Hydroxy-3-methyl-butyl)-4-methyl-3-{6-[3-methyl-1-(2-morpholin-4-yl-ethyl)-1H-pyrazol-4-yl]-pyrazin-2-yl}-benzenesulfonamide], the IC50 at PI 3-kinase delta is 771 nM; on PI 3-kinase alpha, 3090 nM.
The corresponding values for `Cc1ccc(S(=O)(=O)N[C@H]2CC[C@H](O)CC2)cc1-c1cncc(-c2cccnc2)n1` [Example 11, Trans N-(4-Hydroxy-cyclohexyl)-4-methyl-3-(6-pyridin-3-yl-pyrazin-2-yl)-benzenesulfonamide] are 1050 nM and 1700 nM.

The values are drawn from patent publication US9862711B2, “Pyrazine derivatives as phosphatidylinositol 3-kinase inhibitors” (NOVARTIS AG, priority 2014, dated 2018).
